Experimental data: patent US20230226005A1, “Methods of Treating, Ameliorating, Shortening Duration, and/or Reversing Symptoms and/or Complications of a Coronavirus Infection” (Yale University, priority 2020, published 2023)

Test system: COVID-19 infection
Experiment: Phase IIa study: COVID-19 PRO frequency score
Assay type: in vivo, human
Source text: Subjects were enrolled in two cohorts. The treatment cohort consists of subjects receiving camostat mesylate, and the control cohort consists of subjects receiving a placebo. […] The control cohort received a placebo four times daily for seven days.
Subjects self-administered Likert-type symptom score evaluations daily from days 0-14, wherein subjects provided a ranking (i.e., 0—not at all, 1—a little bit, 2—somewhat, 3—quite a bit, and 4—very much) in response to various symptoms (e.g., nose, throat, eyes, chest/respiratory, gastrointestinal, body/systemic, and smell/taste symptoms) (Table 1).
The COVID-19 PRO daily self-score tool consists of 39 items that are answered daily by the subject. Items 1-33 are Likert-scale questions (e.g., rated 0-4), wherein 0=not at all, and 4=very much. These items are summed to score the severity of symptoms, wherein a total score of 132 would indicate the greatest severity of symptoms and a score of 0 would indicate no severity of symptoms.
Additional statistical models were applied to the raw data, which are provided herein (Tables 8-10).

With `CN(C)C(=O)COC(=O)Cc1ccc(OC(=O)c2ccc(NC(=N)N)cc2)cc1` [camostat, 4-[[4-[(Aminoiminomethyl)amino]benzoyl]oxy]benzeneacetic acid 2-(dimethylamino)-2-oxoethyl ester] the “frequency score, Fitzmaurice mixed effects model, A: Camostat arm” value (shortened to “frequency score … Camostat arm”) (day 0) was 6.25 (0.47), the “frequency score, Fitzmaurice mixed effects model, B − A (placebo − camostat)” value (from here on “frequency score … (placebo − camostat)”) (day 0) was 0 and the “frequency score … Camostat arm” value (day 1) was 6.49 (0.57). The “frequency score … (placebo − camostat)” value (day 1) was −0.05 (0.67), the “frequency score … Camostat arm” value (day 2) was 5.51 (0.59) and the “frequency score … (placebo − camostat)” value (day 2) was −0.03 (0.68). The “frequency score … Camostat arm” value (day 3) was 5.88 (0.58), the “frequency score … (placebo − camostat)” value (day 3) was −0.42 (0.67) and the “frequency score … Camostat arm” value (day 4) was 5.64 (0.58). The “frequency score … (placebo − camostat)” value (day 4) was −1.05 (0.68), the “frequency score … Camostat arm” value (day 5) was 5.54 (0.58) and the “frequency score … (placebo − camostat)” value (day 5) was −0.96 (0.68). The “frequency score … Camostat arm” value (day 6) was 4.75 (0.58), the “frequency score … (placebo − camostat)” value (day 6) was −0.41 (0.68) and the “frequency score … Camostat arm” value (day 7) was 4.62 (0.59). For the same compound, the “frequency score … (placebo − camostat)” value (day 7) was −0.51 (0.68), the “frequency score … Camostat arm” value (day 8) was 4.39 (0.6) and the “frequency score … (placebo − camostat)” value (day 8) was −0.9 (0.7). For the same compound, the “frequency score … Camostat arm” value (day 9) was 3.98 (0.59), the “frequency score … (placebo − camostat)” value (day 9) was −0.54 (0.69) and the “frequency score … Camostat arm” value (day 10) was 3.96 (0.6). For the same compound, the “frequency score … (placebo − camostat)” value (day 10) was −0.98 (0.69), the “frequency score … Camostat arm” value (day 11) was 3.8 (0.6) and the “frequency score … (placebo − camostat)” value (day 11) was −0.9 (0.7). The “frequency score … Camostat arm” value (day 12) was 2.75 (0.6), the “frequency score … (placebo − camostat)” value (day 12) was −0.28 (0.7) and the “frequency score … Camostat arm” value (day 13) was 2.66 (0.62). For the same compound, the “frequency score … (placebo − camostat)” value (day 13) was −0.22 (0.72), the “frequency score … Camostat arm” value (day 14) was 2.44 (0.61) and the “frequency score … (placebo − camostat)” value (day 14) was −0.13 (0.72).
